The data set can be described thus: Selection of antimicrobial agents: solubility in aqueous solution, stability, compatibility with the coating composition.

With `N=C(NCCCCCCNC(=N)NC(=N)Nc1ccc(Cl)cc1)NC(=N)Nc1ccc(Cl)cc1.O=C(O)[C@H](O)[C@@H](O)[C@H](O)[C@H](O)CO.O=C(O)[C@H](O)[C@@H](O)[C@H](O)[C@H](O)CO` [Chlorhexidine gluconate, chlorhexidine gluconate], the solubility in water entry is “good water solubility”.

As to polyhexamethylene biguanide [PHMB], the solubility in water result is “good water solubility”.
